Assay results reported in patent publication EP3677259A1, “USE OF ARACHIDONYL TRIFLUOROMETHYL KETONE” (Mosaiques Diagnostics And Therapeutics AG, priority 2019, dated 2020).
Read-outs that look alike come from different tables or passages of the source.

Assays:
[1] = test system: Ca2+-independent group VI iPLA2; details: cited from earlier work
GV sPLA2 = biological target: T1, GV sPLA2 (Homo sapiens, UniProt P39877); details: cited from earlier work
T1 sequence (P39877 21-138): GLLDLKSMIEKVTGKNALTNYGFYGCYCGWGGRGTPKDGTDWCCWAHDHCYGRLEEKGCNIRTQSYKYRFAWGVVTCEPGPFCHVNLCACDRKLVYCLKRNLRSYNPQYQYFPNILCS

GVIA iPLA2 = biological target: T2, GVIA iPLA2 (Homo sapiens, UniProt O60733); details: cited from earlier work
T2 sequence (O60733 1-806): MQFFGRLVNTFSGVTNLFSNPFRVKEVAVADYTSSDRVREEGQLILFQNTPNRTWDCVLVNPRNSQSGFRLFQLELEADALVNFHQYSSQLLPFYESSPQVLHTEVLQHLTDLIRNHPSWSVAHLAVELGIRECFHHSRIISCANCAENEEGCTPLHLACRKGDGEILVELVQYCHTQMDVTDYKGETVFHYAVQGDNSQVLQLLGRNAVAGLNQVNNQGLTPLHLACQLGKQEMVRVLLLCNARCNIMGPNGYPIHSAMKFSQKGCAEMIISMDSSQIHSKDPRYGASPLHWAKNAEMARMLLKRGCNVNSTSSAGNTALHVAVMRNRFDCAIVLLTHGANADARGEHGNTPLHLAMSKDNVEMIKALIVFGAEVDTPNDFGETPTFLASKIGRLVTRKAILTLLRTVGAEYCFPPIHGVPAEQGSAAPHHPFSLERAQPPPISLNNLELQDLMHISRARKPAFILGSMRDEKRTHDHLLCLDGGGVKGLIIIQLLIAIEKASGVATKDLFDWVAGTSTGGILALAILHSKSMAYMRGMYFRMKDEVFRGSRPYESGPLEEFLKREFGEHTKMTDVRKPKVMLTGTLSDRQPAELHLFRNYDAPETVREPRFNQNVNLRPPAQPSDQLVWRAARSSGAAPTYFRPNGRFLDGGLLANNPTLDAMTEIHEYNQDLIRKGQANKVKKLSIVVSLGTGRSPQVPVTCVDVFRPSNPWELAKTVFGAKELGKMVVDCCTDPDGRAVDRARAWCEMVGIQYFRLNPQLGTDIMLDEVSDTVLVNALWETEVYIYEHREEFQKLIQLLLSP

human platelets = details: read-out: IC50, arachidonic acid mobilization, cited from earlier work
HAoSMCs = assay: Relative mRNA expression of osteogenic markers MSX2, CBFA1, ALPL in HAoSMCs; type: cell-based, human; details: 10 µM arachidonic acid, 24 hours, vs. control
Method: Primary HAoSMCs were cultured in Waymouth's MB 752/1 medium and Ham's F-12 nutrient mixture (1:1, Gibco, Life Technologies) supplemented with 10% FBS (Gibco, Life Technologies) and 100 U/ml penicillin and 100 μg/ml streptomycin. HAoSMCs were grown to confluency and used in all experiments from passages 4 to 10. Calcification was induced with 3 mM sodium phosphate buffer as calcification medium. Treatment was performed over a period of 11 days. Figs. 1C-E are diagrams indicating relative mRNA expression in HAoSMCs of MSX2 (Fig. 1C), CBFA1 (Fig. 1D) and ALPL (Fig. 1E) as scatter dot plots and as arithmetic means ± SEM (n=6; arbitrary units, a.u.). mRNA expression was determined following treatment of the HAoSMCs for 24 hours with control or with 2 mM β-glycerophosphate (Pi) without or with additional treatment with 10 μM AACOCF3. **(p<0.01), ***(p<0.001) statistically significant vs. control treated […]<0.001) statistically significant vs. HAoSMCs treated with Pi alone. […] Conditions were as above (for Fig 2), namely primary HAoSMCs were cultured in Waymouth's MB 752/1 medium and Ham's F-12 nutrient mixture (1:1, Gibco, Life Technologies) supplemented with 10% FBS (Gibco, Life Technologies) and 100 U/ml penicillin and 100 μg/ml streptomycin. HAoSMCs were grown to confluency and used in all experiments from passages 4 to 10. […]

GIVA cPLA2 = biological target: T3, GIVA cPLA2 (Homo sapiens, UniProt P47712); details: cited from earlier work
T3 sequence (P47712 1-749): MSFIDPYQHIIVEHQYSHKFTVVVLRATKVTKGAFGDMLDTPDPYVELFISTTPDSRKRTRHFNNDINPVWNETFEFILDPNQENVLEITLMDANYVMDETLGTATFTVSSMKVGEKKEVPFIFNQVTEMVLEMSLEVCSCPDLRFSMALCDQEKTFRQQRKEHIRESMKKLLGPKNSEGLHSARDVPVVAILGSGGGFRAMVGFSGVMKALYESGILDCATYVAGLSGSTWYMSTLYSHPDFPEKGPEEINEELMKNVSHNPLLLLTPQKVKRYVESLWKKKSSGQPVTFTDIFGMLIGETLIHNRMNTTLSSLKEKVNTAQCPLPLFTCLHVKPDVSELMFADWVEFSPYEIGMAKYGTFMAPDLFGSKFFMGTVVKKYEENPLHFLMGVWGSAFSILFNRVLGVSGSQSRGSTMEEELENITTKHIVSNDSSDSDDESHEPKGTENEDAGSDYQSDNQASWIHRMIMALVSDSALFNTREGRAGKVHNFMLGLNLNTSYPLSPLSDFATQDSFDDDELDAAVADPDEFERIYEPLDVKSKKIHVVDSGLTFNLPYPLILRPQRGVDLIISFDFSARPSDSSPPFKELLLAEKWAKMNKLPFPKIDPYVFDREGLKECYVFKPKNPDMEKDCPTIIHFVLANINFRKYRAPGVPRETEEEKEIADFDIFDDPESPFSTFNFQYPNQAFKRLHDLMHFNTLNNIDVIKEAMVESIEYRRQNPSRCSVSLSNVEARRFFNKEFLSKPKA

| Molecule | GV sPLA2 % Inhibition (GV sPLA2) | GVIA iPLA2 % Inhibition (GVIA iPLA2) | GIVA cPLA2 % Inhibition (GIVA cPLA2) | GIVA cPLA2 X1(50) (GIVA cPLA2) | also measured |
| --- | --- | --- | --- | --- | --- |
| Palmityl trifluoromethylketone [PACOCF3] |  |  |  |  | IC50 [1]: 3800 nM |
| CCOC(=O)CCCOC(=O)C(=O)CCCCc1ccccc1 [compound 19] | <25% | <25% |  |  |  |
| CCCCCCCCCCOc1ccc(OCC(=O)Cn2cc(C(=O)OC)c3cc(C(=O)O)ccc32)cc1 [CAY10502, 1-[3-(4-decoxyphenoxy)-2-oxopropyl]-3-methoxycarbonylindole-5-carboxylic acid] |  |  |  |  | IC50 (human platelets; A23187-stimulated human platelets): 570 nM; IC50 (human platelets; TPA-stimulated human platelets): 0.9 nM |
| CCCCC/C=C\C/C=C\C/C=C\C/C=C\CCCC(=O)O [Arachidonic acid, arachidonic acid] |  |  |  |  | osteoinductive signaling (MSX2, CBFA1, ALPL relative mRNA expression) (HAoSMCs): induces osteoinductive signaling |
| O=C(O)CCCCOC(=O)C(=O)CCCCc1ccc(-c2ccccc2)cc1 [17f] | <25% |  | > 95% | 0.000078 ± 0.00001 |  |
| O=C(O)CCCOC(=O)C(=O)CCCCc1ccc(-c2ccccc2)cc1 [17d] | <25% | <25% | >95% | 0.00068 ± 0.00007 |  |
| CCCCCCCCCCCCCCC(O)C(=O)OCCCC(=O)O (centres unmarked) [compound 20] |  | <25% | <25% |  |  |
| CCCCCCCCCCCCCCC(=O)C(=O)O [12e] | <25% | <25% |  |  |  |
| O=C(O)CCCOC(=O)C(=O)CCCc1ccc(-c2ccccc2)cc1 [17g] | <25% |  | > 95% | 0.0065 ± 0.002 |  |
| CC(C)(C)OC(=O)CCCOC(=O)C(=O)CCCCc1ccccc1 [16c] | <25% | <25% | <25% |  |  |
